Experimental findings from PubChem BioAssay (NCI) are described below.

Some test systems named below: SK-MEL-5 melanoma; EKVX NSCLC; HCC-2998 colon; SR leukemia; OVCAR-4 ovarian; CAKI-1 renal; MALME-3M melanoma; SN12C renal; NCI-H226 lung; MDA-MB-231 breast; HOP-92 NSCLC; PC-3 prostate; MDA-N.
Holding throughout (experiment): DTP human tumour cell line panel, 48 h

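Test compounds were applied to cells in 96-well plates for 48 hours at 5 doses. TGI: concentration producing complete growth inhibition.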 Bounds are passed on as bounds.

Broadly, the TGI is the concentration giving total growth inhibition. High values mean lower sensitivity of the cells, low ones greater sensitivity of the cells. In the case of `Cc1ccc(NC(=O)C(=O)Cc2cccc[n+]2[O-])cc1C`, the TGI with SK-MEL-5 melanoma, in the experiment on EKVX NSCLC, with HCC-2998 colon, with SR leukemia, in the experiment on OVCAR-4 ovarian and in the experiment with CAKI-1 renal was more than 100 µM throughout. In addition, the TGI in the experiment on MALME-3M melanoma, in the experiment on SN12C renal and with NCI-H226 lung was more than 100 µM in each case.
`O=C(O)CCC1NC(/C(=C/c2ccccc2O)NC(=O)c2ccccc2)OC1=O` (centres undefined): the TGI in the experiment with SK-MEL-5 melanoma, in the experiment with EKVX NSCLC, with HCC-2998 colon, in the experiment on MDA-MB-231 breast, with OVCAR-4 ovarian and in the experiment with CAKI-1 renal was more than 100 µM in each case. Further, the TGI in the experiment with MALME-3M melanoma, with SN12C renal, with NCI-H226 lung, with HOP-92 NSCLC and in the experiment with PC-3 prostate was more than 100 µM in each case.
Take `CC(CC=O)Nc1nn2c(=O)c3ccccc3nc2s1` (centres undefined): the TGI in the experiment with SK-MEL-5 melanoma, in the experiment on EKVX NSCLC, in the experiment with HCC-2998 colon, with SR leukemia, in the experiment on OVCAR-4 ovarian and with CAKI-1 renal was more than 100 µM each time. Also, the TGI with MALME-3M melanoma, in the experiment on SN12C renal, in the experiment with NCI-H226 lung, with HOP-92 NSCLC and in the experiment with PC-3 prostate was more than 100 µM each time.
Take `Cc1ccccc1Nc1nc2ccccc2nc1NS(=O)(=O)c1ccccc1`: the TGI with SK-MEL-5 melanoma, in the experiment with EKVX NSCLC, with HCC-2998 colon, in the experiment on SR leukemia, with MDA-MB-231 breast and in the experiment with OVCAR-4 ovarian was more than 100 µM throughout. Moreover, the TGI in the experiment on CAKI-1 renal, in the experiment with MALME-3M melanoma, in the experiment on SN12C renal, in the experiment with NCI-H226 lung, in the experiment with HOP-92 NSCLC and in the experiment on PC-3 prostate was more than 100 µM each time.
With `O=C1/C(=C/c2ccc(Cl)cc2)Oc2ccccc21`, the TGI with SK-MEL-5 melanoma was 42.1 µM; with EKVX NSCLC, 46.1 µM; in the experiment with HCC-2998 colon it was more than 100 µM; in the experiment on MDA-N, more than 100 µM; in the experiment with SR leukemia, more than 100 µM; in the experiment with MDA-MB-231 breast it was more than 100 µM. In addition, the TGI was more than 100 µM in the experiment on OVCAR-4 ovarian, 12.6 µM in the experiment on CAKI-1 renal, more than 100 µM in the experiment on SN12C renal and 68 µM in the experiment with NCI-H226 lung.
For `CC(C)=CC(=O)c1c(C(=O)O)nc2ccccc2[n+]1[O-]`, the TGI in the experiment with SK-MEL-5 melanoma, in the experiment on EKVX NSCLC, in the experiment with HCC-2998 colon, in the experiment with SR leukemia, with OVCAR-4 ovarian and in the experiment with CAKI-1 renal was more than 100 µM in each case. In addition, the TGI in the experiment on SN12C renal, in the experiment with NCI-H226 lung and in the experiment on HOP-92 NSCLC was more than 100 µM throughout.
Take `C(=C\c1c2oc(-c3ccccc3)cc(-c3ccccc3)c-2c2ccccc12)/C=C1\c2ccccc2-c2c(-c3ccccc3)cc(-c3ccccc3)[o+]c21`: the TGI in the experiment with SK-MEL-5 melanoma, in the experiment on EKVX NSCLC, in the experiment on HCC-2998 colon, with SR leukemia, in the experiment with OVCAR-4 ovarian and in the experiment with MALME-3M melanoma was more than 100 µM in each case. For the same compound, the TGI in the experiment with SN12C renal, in the experiment on NCI-H226 lung and with HOP-92 NSCLC was more than 100 µM in each case.
With `O=C(c1ccccc1)c1cc(Cl)ccc1NCn1nnc2ccccc21`, the TGI in the experiment with EKVX NSCLC, with HCC-2998 colon, in the experiment with SR leukemia, in the experiment with OVCAR-4 ovarian, in the experiment on SN12C renal and with NCI-H226 lung was more than 100 µM in each case. In the experiment with HOP-92 NSCLC, the TGI was more than 100 µM.
With `CCOC(=O)c1c(-c2ccccc2)c(C)cn1C`, the TGI with EKVX NSCLC was more than 10 µM; in the experiment on MDA-N, more than 10 µM; in the experiment with SR leukemia, more than 10 µM; with MDA-MB-231 breast it was 0.772 µM; in the experiment with OVCAR-4 ovarian it was more than 10 µM; in the experiment on SN12C renal, more than 10 µM. In addition, the TGI in the experiment with NCI-H226 lung and in the experiment on HOP-92 NSCLC was more than 10 µM throughout.
For the compound `CC[C@]1(Cc2ccc(OC)c(OC)c2)C=[N+]([O-])O[C@H](OC2CCCC2(c2ccccc2)c2ccccc2)[C@@H]1OC(=O)C(C)(C)C` (some centres undefined), the TGI in the experiment with SK-MEL-5 melanoma is 4.09 µM; with EKVX NSCLC, 22.3 µM; with HCC-2998 colon it was 3.71 µM; with SR leukemia, more than 100 µM; with MDA-MB-231 breast, more than 33 µM; with OVCAR-4 ovarian, 14.1 µM. Further, the TGI with CAKI-1 renal was more than 100 µM; in the experiment on SN12C renal, more than 22.1 µM; with NCI-H226 lung it was 12.5 µM; in the experiment with HOP-92 NSCLC, 18.2 µM; with PC-3 prostate, 14.8 µM.
On to `CCOC(=O)C1CCC(=O)N1C(=O)c1ccc(Cl)cc1` (centres undefined), for which the TGI in the experiment on SK-MEL-5 melanoma, in the experiment with EKVX NSCLC, in the experiment on HCC-2998 colon, with MDA-N, in the experiment with SR leukemia and in the experiment with MDA-MB-231 breast was more than 100 µM each time. Besides, the TGI in the experiment with CAKI-1 renal, in the experiment on MALME-3M melanoma, in the experiment on SN12C renal, with NCI-H226 lung and in the experiment with HOP-92 NSCLC was more than 100 µM in each case.
Turning to `N#Cc1c(N)nc(Sc2ccccc2N)c(C#N)c1-c1ccccc1`, the TGI was more than 100 µM with SK-MEL-5 melanoma; more than 100 µM in the experiment with EKVX NSCLC; 38.3 µM with HCC-2998 colon; more than 100 µM with SR leukemia; 45.5 µM in the experiment with MDA-MB-231 breast; more than 100 µM in the experiment on OVCAR-4 ovarian. The TGI in the experiment on CAKI-1 renal is more than 100 µM; in the experiment on MALME-3M melanoma, 46.2 µM; in the experiment on NCI-H226 lung, more than 100 µM; in the experiment with HOP-92 NSCLC, 64.3 µM; in the experiment with PC-3 prostate it was 33.3 µM.
Turning to `CN(/N=C\c1ccc2ccccc2c1)C1=NCCCN1`, the TGI is 24.6 µM in the experiment on SK-MEL-5 melanoma; 53.8 µM in the experiment with EKVX NSCLC; 27.2 µM in the experiment on HCC-2998 colon; more than 100 µM with SR leukemia; 34.5 µM in the experiment with MDA-MB-231 breast; more than 100 µM with OVCAR-4 ovarian. Further, the TGI in the experiment on CAKI-1 renal was determined as 22.7 µM; in the experiment on MALME-3M melanoma, 26.4 µM; in the experiment on NCI-H226 lung, 40.4 µM; with HOP-92 NSCLC, 14.5 µM.
